Test results as given in patent publication US20230059136A1, “THE COMPOUNDS AND COMPOSITIONS FOR TREATING CONDITIONS ASSOCIATED WITH NLRP ACTIVITY” (Novartis AG, priority 2018, published 2023).

Tested on: IL-1β production in PMA-differentiated THP-1 cells
Test: IL-1β production in PMA-differentiated THP-1 cells stimulated with gramicidin (hTHP-1 assay containing 2% fetal bovine serum)
Type: cell-based, human
Details: Table B1; 2% fetal bovine serum; class symbols; read-out: hTHP-1 IC50 (Average IC50 of compounds in hTHP-1 assay)
Method: Procedure 1: IL-1β Production in PMA-Differentiated THP-1 Cells Stimulated with Gramicidin.
THP-1 cells were purchased from the American Type Culture Collection and sub-cultured according to instructions from the supplier. Cells were cultured in complete RPMI 1640 (containing 10% heat inactivated FBS, penicillin (100 units/ml) and streptomycin (100 μg/ml)), and maintained in log phase prior to experimental setup. Prior to the experiment, compounds were dissolved in dimethyl sulfoxide (DMSO) to generate a 30 mM stock. The compound stock was first pre-diluted in DMSO to 3, 0.34, 0.042 and 0.0083 mM intermediate concentrations and subsequently spotted using Echo550 liquid handler into an empty 384-well assay plate to achieve desired final concentration (e.g. 100, 33, 11, 3.7, 1.2, 0.41, 0.14, 0.046, 0.015, 0.0051, 0.0017 μM). DMSO was backfilled in the plate to achieve a final DMSO assay concentration of 0.37%. The plate was then sealed and stored at room temperature until required.
THP-1 cells were treated with PMA (Phorbol 12-myristate 13-acetate) (20 ng/ml) for 16-18 hours. On the day of the experiment the media was removed and adherent cells were detached with trypsin for 5 minutes. Cells were then harvested, washed with complete RPMI 1640, spun down, and resuspended in RPMI 1640 (containing 2% heat inactivated FBS, penicillin (100 units/ml) and streptomycin (100 μg/ml). The cells were plated in the 384-well assay plate containing the spotted compounds at a density of 50,000 cells/well (final assay volume 50 μl). Cells were incubated with compounds for 1 hour and then stimulated with gramicidin (5 μM) (Enzo) for 2 hours. Plates were then centrifuged at 340 g for 5 min. Cell free supernatant (40 μL) was collected using a 96-channel PlateMaster (Gilson) and the production of IL-1β was evaluated by HTRF (cisbio). The plates were incubated for 18 h at 4° C. and read using the preset HTRF program (donor emission at 620 nm, acceptor emission at 668 nm) of the SpectraMax i3x spectrophotometer (Molecular Devices, software SoftMax 6). A vehicle only control and a dose titration of CRID3 (100-0.0017 μM) were run concurrently with each experiment.
Procedure 2: IL-1β Production in PMA-Differentiated THP-1 Cells Stimulated with Gramicidin.
THP-1 cells were purchased from the American Type Culture Collection and sub-cultured according to instructions from the supplier. Prior to experiments, cells were cultured in complete RPMI 1640 (containing 10% heat inactivated FBS, penicillin (100 units/ml) and streptomycin (100 μg/ml)), and maintained in log phase prior to experimental setup. Prior to the experiment THP-1 were treated with PMA (Phorbol 12-myristate 13-acetate) (20 ng/ml) for 16-18 hours. Compounds were dissolved in dimethyl sulfoxide (DMSO) to generate a 30 mM stock. On the day of the experiment the media was removed and adherent cells were detached with trypsin for 5 minutes. Cells were then harvested, washed with complete RPMI 1640, spun down, resuspended in RPMI 1640 (containing 2% heat inactivated FBS, penicillin (100 units/ml) and streptomycin (100 μg/ml). The cells were plated in a 384-well plate at a density of 50,000 cells/well (final assay volume 50 μl). Compounds were first dissolved in assay medium to obtain a 5× top concentration of 500 μM. 10 step dilutions (1:3) were then undertaken in assay medium containing 1.67% DMSO. 5× compound solutions were added to the culture medium to achieve desired final concentration (e.g. 100, 33, 11, 3.7, 1.2, 0.41, 0.14, 0.046, 0.015, 0.0051, 0.0017 μM). Final DMSO concentration was at 0.37%. Cells were incubated with compounds for 1 hour and then stimulated with gramicidin (5 μM) (Enzo) for 2 hours. Plates were then centrifuged at 340 g for 5 min. Cell free supernatant (40 μL) was collected using a 96-channel PlateMaster (Gilson) and the production of IL-1β was evaluated by HTRF (cisbio). A vehicle only control and a dose titration of CRID3 (100-0.0017 μM) were run concurrently with each experiment. […]

| SMILES | IC50 [µM] |
| --- | --- |
| CC(C)c1cc(C#N)cc(C(C)C)c1CC(=O)N=S(N)(=O)c1ncc(C(C)(C)O)s1 (single isomer, unassigned) [Example 82, (R)- or (S)-2-(4-cyano-2,6-diisopropylphenyl)-N-(5-(2-hydroxypropan-2-yl)thiazol-2-ylsulfonimidoyl)acetamide] | 5 to 30 |
| CC(C)c1cc(C#N)cc(C(C)C)c1CC(=O)N=S(N)(=O)c1ncc(C(C)(C)O)s1 (single isomer, unassigned) [Example 83, (S)- or (R)-2-(4-cyano-2,6-diisopropylphenyl)-N-(5-(2-hydroxypropan-2-yl)thiazol-2-ylsulfonimidoyl)acetamide] | 0.04 to 0.2 |
| Cc1nc(C(C)(C)O)sc1S(N)(=O)=NC(=O)Cc1c(C(C)C)cc(OC(F)F)cc1C(C)C (single isomer, unassigned) [Example 84, (S)- or (R)-2-(4-(difluoromethoxy)-2,6-diisopropylphenyl)-N-(2-(2-hydroxypropan-2-yl)-4-methylthiazol-5-ylsulfonimidoyl)acetamide] | 0.04 to 0.2 |
| CC(C)c1cc(C(F)F)cc(C(C)C)c1CC(=O)N=S(N)(=O)c1ccc(C(C)(C)O)cc1F (single isomer, unassigned) [Example 86, (S)- or (R)-2-(4-(difluoromethyl)-2,6-diisopropylphenyl)-N-(2-fluoro-4-(2-hydroxypropan-2-yl)phenylsulfonimidoyl) acetamide] | 1 to 5 |
| COCc1cc(C(C)C)c(CC(=O)N=S(N)(=O)c2cc(C(C)(C)O)cs2)c(C(C)C)c1 (single isomer, unassigned) [Example 157, (R) or (S)-N-(amino(4-(2-hydroxypropan-2-yl)thiophen-2-yl)(oxo)-λ^6-sulfaneylidene)-2-(2,6-diisopropyl-4-(methoxymethyl)phenyl)acetamide] | 0.008 to 0.04 |
| CC(C)c1ccc(F)c(C(C)C)c1CC(=O)N=S(N)(=O)c1cc(C(C)(C)O)cs1 (single isomer, unassigned) [Example 159, (R) or (S)-N-(amino(4-(2-hydroxypropan-2-yl)thiophen-2-yl)(oxo)-λ^6-sulfaneylidene)-2-(3-fluoro-2,6-diisopropylphenyl) acetamide] | 0.04 to 0.2 |
| CC(C)c1ccc(F)c(C(C)C)c1CC(=O)N=S(N)(=O)c1cc(C(C)(C)O)cs1 (single isomer, unassigned) [Example 160, (S) or (R)-N-(amino(4-(2-hydroxypropan-2-yl)thiophen-2-yl)(oxo)-λ^6-sulfaneylidene)-2-(3-fluoro-2,6-diisopropylphenyl) acetamide] | 0.2 to 1 |
| CC(C)c1cc(-c2ccc3ccccc3c2)cc(C(C)C)c1CC(=O)N=S(N)(=O)c1cnc(C(C)(C)O)s1 (single isomer, unassigned) [Example 163, (R) or (S)-N-(amino(2-(2-hydroxypropan-2-yl)thiazol-5-yl)(oxo)-λ^6-sulfaneylidene)-2-(2,6-diisopropyl-4-(naphthalen-2-yl)phenyl) acetamide] | 0.04 to 0.2 |
| CC(C)c1cc(-c2ccc3ccccc3c2)cc(C(C)C)c1CC(=O)N=S(N)(=O)c1cnc(C(C)(C)O)s1 (single isomer, unassigned) [Example 164, (S) or (R)-N-(amino(2-(2-hydroxypropan-2-yl)thiazol-5-yl)(oxo)-λ^6-sulfaneylidene)-2-(2,6-diisopropyl-4-(naphthalen-2-yl)phenyl) acetamide] | 1 to 5 |
| CC(C)c1cc(-c2ccc3c(c2)OC(F)(F)O3)cc(C(C)C)c1CC(=O)N=S(N)(=O)c1ncc(C(C)(C)O)s1 (single isomer, unassigned) [Example 165, (S) or (R)-N-(amino(5-(2-hydroxypropan-2-yl)thiazol-2-yl)(oxo)-λ^6-sulfaneylidene)-2-(4-(2,2-difluorobenzo[d] [1,3]dioxol-5-yl)-2,6-diisopropylphenyl) acetamide] | 1 to 5 |
| CC(C)c1cc(-c2ccc3c(c2)OC(F)(F)O3)cc(C(C)C)c1CC(=O)N=S(N)(=O)c1ncc(C(C)(C)O)s1 (single isomer, unassigned) [Example 166, (R) or (S)-N-(amino(5-(2-hydroxypropan-2-yl)thiazol-2-yl)(oxo)-λ^6-sulfaneylidene)-2-(4-(2,2-difluorobenzo[d] [1,3]dioxol-5-yl)-2,6-diisopropylphenyl) acetamide] | 0.04 to 0.2 |

More lines, now with the values ahead:

| IC50 [µM] | SMILES |
| --- | --- |
| 0.2 to 1 | CC(C)c1cc(C(F)F)cc(C(C)C)c1CC(=O)N=S(N)(=O)c1sc(C(C)(C)O)cc1F (single isomer, unassigned) [Example 81, (R)- or (S)-2-(4-(difluoromethyl)-2,6-diisopropylphenyl)-N-(3-fluoro-5-(2-hydroxypropan-2-yl)thiophen-2-ylsulfonimidoyl)acetamide] |
| 5 to 30 | Cc1nc(C(C)(C)O)sc1S(N)(=O)=NC(=O)Cc1c(C(C)C)cc(OC(F)F)cc1C(C)C (single isomer, unassigned) [Example 85, (R)- or (S)-2-(4-(difluoromethoxy)-2,6-diisopropylphenyl)-N-(2-(2-hydroxypropan-2-yl)-4-methylthiazol-5-ylsulfonimidoyl)acetamide] |
| 0.04 to 0.2 | CC(C)c1cc(C(F)F)cc(C(C)C)c1CC(=O)N=S(N)(=O)c1ccc(C(C)(C)O)cc1F (single isomer, unassigned) [Example 87, (R)- or (S)-2-(4-(difluoromethyl)-2,6-diisopropylphenyl)-N-(2-fluoro-4-(2-hydroxypropan-2-yl)phenylsulfonimidoyl) acetamide] |
| 1 to 5 | COCc1cc(C(C)C)c(CC(=O)N=S(N)(=O)c2cc(C(C)(C)O)cs2)c(C(C)C)c1 (single isomer, unassigned) [Example 158, (S) or (R)-N-(amino(4-(2-hydroxypropan-2-yl)thiophen-2-yl)(oxo)-λ^6-sulfaneylidene)-2-(2,6-diisopropyl-4-(methoxymethyl)phenyl)acetamide] |
| 0.04 to 0.2 | CC(C)c1ccc(F)c(C(C)C)c1CC(=O)N=S(N)(=O)c1cnc(C(C)(C)O)s1 (single isomer, unassigned) [Example 161, (R) or (S)-N-(amino(2-(2-hydroxypropan-2-yl)thiazol-5-yl)(oxo)-λ^6-sulfaneylidene)-2-(3-fluoro-2,6-diisopropylphenyl) acetamide] |
| 5 to 30 | CC(C)c1ccc(F)c(C(C)C)c1CC(=O)N=S(N)(=O)c1cnc(C(C)(C)O)s1 (single isomer, unassigned) [Example 162, (S) or (R)-N-(amino(2-(2-hydroxypropan-2-yl)thiazol-5-yl)(oxo)-λ^6-sulfaneylidene)-2-(3-fluoro-2,6-diisopropylphenyl) acetamide] |
| 1 to 5 | Cc1ccc(-c2cc(C(C)C)c(CC(=O)N=S(N)(=O)c3ncc(C(C)(C)O)s3)c(C(C)C)c2)cc1C (single isomer, unassigned) [Example 167, (S) or (R)-N-(amino(5-(2-hydroxypropan-2-yl)thiazol-2-yl)(oxo)-λ^6-sulfaneylidene)-2-(3,5-diisopropyl-3′,4′-dimethyl-[1,1′-biphenyl]-4-yl)acetamide] |
| 0.2 to 1 | Cc1ccc(-c2cc(C(C)C)c(CC(=O)N=S(N)(=O)c3ncc(C(C)(C)O)s3)c(C(C)C)c2)cc1C (single isomer, unassigned) [Example 168, (R) or (S)-N-(amino(5-(2-hydroxypropan-2-yl)thiazol-2-yl)(oxo)-λ^6-sulfaneylidene)-2-(3,5-diisopropyl-3′,4'-dimethyl-[1,1′-biphenyl]-4-yl)acetamide] |
